Measured values as given in patent US5466678A, “Co-administration of S-adenosyl-L-methionine to reduce the nephrotoxicity of cisplatin therapy” (priority 1992, dated 1995).
Where two headings read alike, the source gives them in different places.

Legend:
P388 leukemic cells = assay: Test Example 7: in vitro antitumor activity, P388; assay type: cell-based, mouse; settings: CDDP alone
Description: The cultures were centrifuged at 1,600 rpm for 5 minutes and the culture medium was removed with suction.

[1] = system: ACHN renal adenocarcinoma; assay: Test Example 10: antitumor activity against human tumors, ACHN; assay type: cell-based; settings: CDDP alone
Description: (§1) After the culture medium was removed with suction, the respective residues were washed once with cold PBS (-), supplemented with 2 ml portions of fresh medium and then cultured for further 72 hours. The cells were treated with trypsin, diluted and then counted using a Coulter counter.
(§2) Culture medium MEM: 10% fetal calf serum, Kanamycin (60 μg/ml)
ACHN: renal adenocarcinoma

[2] = system: Colon 26 colon tumor cells; assay: Test Example 9: in vitro antitumor activity, Colon 26; assay type: cell-based, mouse; settings: CDDP alone
Description: (§3) Mouse Colon 26 colon tumor cells were adjusted to 5×10^3 cells/ml in culture medium […] culture was dispensed in 2 ml portions into culture Petri dishes. […] The culture medium was removed with suction, and after washing once with cold PBS(-) 2 ml portions of fresh medium were dispensed into the cultures, which were then cultured for further 72 hours. The cells were treated with trypsin, diluted and then counted using a Coulter counter.

mouse tumors = assay: Antitumor activity in vitro, mouse tumors (summary); assay type: cell-based; settings: CDDP alone
Description: (§4) Mouse L1210 and P388 leukemic cells were adjusted to 10^4 cells/ml in culture medium RPMI 1640, and the mixture was dispensed in 2 ml portions into culture test tubes (Falcon No. 2054) and cultured at 37° C. for 5 hours in the presence of 5% carbonic acid gas in a carbonic acid gas incubator. CDDP and/or SAMes were (was) then added into each culture test tube and incubation was continued for further one hour. The cultures were centrifuged at 1,600 rpm for 5 minutes and the culture medium was removed with suction. Two ml of RPMI 1640 was added to the residue and the mixture was cultured for 72 hours under the same conditions as described above, whereafter the number of cells in each of the resulting cultures was measured on a Coulter counter (Model ZB).
as §3

[3] = system: A549 pulmonary adenocarcinoma; assay: Test Example 10: antitumor activity against human tumors, A549; assay type: cell-based; settings: CDDP alone
Description: as §1, §2
A549: pulmonary adenocarcinoma;

L1210 leukemic cells [4] = assay: Test Example 7: in vitro antitumor activity, L1210; assay type: cell-based, mouse; settings: test drug alone
Description: as §4

[5] = system: MKN45 gastric adenocarcinoma; assay: Test Example 10: antitumor activity against human tumors, MKN45; assay type: cell-based; settings: CDDP alone
Description: as §1, §2
MKN45: gastric adenocarcinoma;

[6] = system: MKN28 gastric adenocarcinoma; assay: Test Example 10: antitumor activity against human tumors, MKN28; assay type: cell-based; settings: CDDP alone
Description: as §1, §2
MKN28: gastric adenocarcinoma;

[7] = system: DLD-1 colon adenocarcinoma; assay: Test Example 10: antitumor activity against human tumors, DLD-1; assay type: cell-based; settings: CDDP alone
Description: as §1, §2
DLD-1: colon adenocarcinoma;

[8] = system: MCAS ovarian cyst adenocarcinoma; assay: Test Example 10: antitumor activity against human tumors, MCAS; assay type: cell-based; settings: CDDP alone
Description: as §1, §2
MCAS: ovarian cyst adenocarcinoma;

LU65 pulmonary cancer = assay: Test Example 10: antitumor activity against human tumors, LU65; assay type: cell-based; settings: CDDP alone
Description: as §1, §2

[9] = system: WiDr colon adenocarcinoma; assay: Test Example 10: antitumor activity against human tumors, WiDr; assay type: cell-based; settings: CDDP alone
Description: as §1, §2
WiDr: colon adenocarcinoma;

L1210 leukemic cells [10] = assay: Test Example 8: in vivo potentiation of antitumor activity of CDDP, L1210; set-up: species or system mouse (CDF1 strain); settings: for Animals showing 30 days of survival / ILS: days 1 and 5; for Change in body weight: day 7 minus day 1
Excerpt: Groups each containing six 8-week-old male mice of the CDF1 strain, weighing 24-28 g, were used. Mouse L1210 leukemic cells (10^5 cells) were transplanted into the abdominal cavity (on day 0).
wherein T stands for the average number of days of survival in the CDDP-administered groups of animals, and C for that in the non-CDDP-administered group (control group) of animals.
When the animals survived 30 days or more, the number of days of survival was deemed as 30 days for the purpose of calculation.
The administration was carried out intraperitoneally each time (on days 1 and 5). […] And the changes in body weight are presented as the difference between the mean body weights on days 1 and 7 (average body weight on day 7--average body weight on day 1) for each group.

PA-1 ovarian teratoma = assay: Test Example 10: antitumor activity against human tumors, PA-1; assay type: cell-based; settings: CDDP alone
Description: as §1, §2

human tumors = assay: Antitumor activity in vitro, human tumors (summary); assay type: cell-based; settings: CDDP alone
Description: as §1, with “Human tumor cells which are listed below were adjusted to 5×10^3 -2×10^4 cells/ml in culture medium RPMI 1640 (N.B. 1) or MEM (N.B. 2), and the respective cultures were dispensed in 2 ml portions into culture Petri dishes. […] After” for “After”

L1210 leukemic cells [11] = assay: Test Example 11: potentiation by intraperitoneally or intravenously administered SAMe against mouse tumor L1210; assay type: in vivo, mouse (CDF1)
Description: Groups each containing six 8- to 9-week-old male CDF1 mice weighing 24-28 g were used. Mouse L1210 leukemic cells (10^5 cells) were transplanted into the abdominal cavity (on day 0).

[12] = in vivo, iv
[13] = intraperitoneal administration, rat; cited from earlier work
[14] = assay type: in vivo, rat (SD strain); settings: for Concentration of SH compounds in blood plasma (as converted to glutathione concentration) / Concentration of SH compounds in renal tissue (as converted to glutathione concentration): mean ± S.D.
Description: Test method: To 6-week-old rats of the SD strain was intravenously administered SAMe in physiological saline (30 mg/kg, pH 6), and the blood level of SH group-containing compounds in the renal tissue was measured thereafter at 30, 60 and 120 minutes (N. Kaplowits et al., J. Pharmacol. Exp. Ther. , 1977, 200, 279-286) .
The values in the table for the concentration of SH compounds in the renal tissue and blood plasma presented as means ± standard deviation as calculated on the assumption that all the SH compounds were glutathione.

tumor cells = assay: Antitumor activity, all tumor cells tested (summary); assay type: cell-based, mouse and human; settings: SAMe alone, respective tumor cells
Description: as §4
Mouse Colon 26 colon tumor cells were adjusted to 5×10^3 cells/ml in culture medium […] culture was dispensed in 2 ml portions into culture Petri dishes. […] The cells were treated with trypsin, diluted and then counted using a Coulter counter.
Human tumor cells which are listed below were adjusted to 5×10^3 -2×10^4 cells/ml in culture medium RPMI 1640 (N.B. 1) or MEM (N.B. 2), and the respective cultures were dispensed in 2 ml portions into culture Petri dishes. […] The cells were treated with trypsin, diluted and then counted using a Coulter counter.

[15] = system: nephrotoxicity caused by CDDP; assay: Test Example 2: nephrotoxicity (BUN) after single administration of CDDP in the dog; assay type: in vivo, dog (beagle); settings: for BUN concentration: mean ± SD
Description: Nine beagle dogs (weighing 10.2-14.5 kg; 24-36 months of age) were divided into three groups of three animals each. […] BUN values were measured every two days after the administration and compared.

[16] = 30 min after SAMe 30 mg/kg i.v.
[17] = 60 min after SAMe 30 mg/kg i.v.
[18] = 120 min after SAMe 30 mg/kg i.v.

## N.N.[Cl][Pt][Cl] [CDDP, cis-diamine-dichloroplatinum]
P388 leukemic cells
  IC50: 3.5 µM
[1]
  IC50: 48.4 µM
[2]
  IC50: 41.7 µM
Mouse tumors
  IC50: 3.5 to 41.7 µM
[3]
  IC50: 18.7 µM
L1210 leukemic cells [4]
  IC50: 16.2 µM
[5]
  IC50: 25.4 µM
[6]
  IC50: 62.8 µM
[7]
  IC50: 23.5 µM
[8]
  IC50: 150 µM
LU65 pulmonary cancer
  IC50: 20.3 µM
[9]
  IC50: 37.7 µM
L1210 leukemic cells [10]; CDDP 4 mg/kg alone i.p.
  Animals showing 30 days of survival: 0/6
  ILS: 73%
  Change in body weight: -2.4 g
L1210 leukemic cells [10]; CDDP 6 mg/kg alone i.p.
  Animals showing 30 days of survival: 0/6
  ILS: 121%
  Change in body weight: -4.5 g
PA-1 ovarian teratoma
  IC50: 4.1 µM
Human tumors
  IC50: 4.1 to 150 µM
L1210 leukemic cells [11]; CDDP 4 mg/kg alone, intraperitoneal
  ILS: 78%
L1210 leukemic cells [11]; CDDP 4 mg/kg alone, intravenous
  ILS: 28%
L1210 leukemic cells [11]; CDDP 6 mg/kg alone, intraperitoneal
  ILS: 84%

## C[S+](CC[C@H](N)C(=O)O)C[C@H]1O[C@@H](n2cnc3c(N)ncnc32)[C@H](O)[C@@H]1O (stereo partly drawn) [SAMe, S-adenosyl-L-methionine]
L1210 leukemic cells [4]; Mus musculus
  IC50: > 1000 µM
[12]
  Distribution to renal tissue: concentrates specifically at the renal tissue
  Metabolism at the renal tissue: converted through the process of transmethylation to S-adenosylhomocysteine
[13]
  LD50: 2,000-2,500 mg/kg
[14]; [16]
  Concentration of SH compounds in blood plasma (as converted to glutathione concentration): 12.2 ± 2.7 μg/ml blood plasma
  Concentration of SH compounds in renal tissue (as converted to glutathione concentration): 1219.3 ± 68.3 μg/g organ
[14]; [17]
  Concentration of SH compounds in blood plasma (as converted to glutathione concentration): 12.5 ± 2.1 μg/ml blood plasma
  Concentration of SH compounds in renal tissue (as converted to glutathione concentration): 1256.0 ± 125.3 μg/g organ
[14]; [18]
  Concentration of SH compounds in blood plasma (as converted to glutathione concentration): 18.5 ± 3.0 μg/ml blood plasma
  Concentration of SH compounds in renal tissue (as converted to glutathione concentration): 1201.1 ± 37.8 μg/g organ
[14]; rat, in vivo, iv
  Accumulation in renal tissue: accumulate the SAMe specifically in the renal tissue
Tumor cells
  IC50: ≥ 1000 µM
[15]; SAMe 30 mg/kg i.v. with CDDP 4 mg/kg, day 1
  BUN concentration: 15.0 ± 1.04 mg/dL
[15]; SAMe 30 mg/kg i.v. with CDDP 4 mg/kg, day 6
  BUN concentration: 167.2 ± 102.30 mg/dL
[15]; SAMe 30 mg/kg i.v. with CDDP 4 mg/kg, day 12
  BUN concentration: 41.62 ± 0.00 mg/dL
[15]; SAMe 30 mg/kg with CDDP 4 mg/kg
  Mortality by day 7: two out of the three animals
[15]; SAMe 100 mg/kg i.v. with CDDP 4 mg/kg, day 1
  BUN concentration: 13.4 ± 2.80 mg/dL
[15]; SAMe 100 mg/kg i.v. with CDDP 4 mg/kg, day 6
  BUN concentration: 27.6 ± 19.151 mg/dL
[15]; SAMe 100 mg/kg i.v. with CDDP 4 mg/kg, day 12
  BUN concentration: 25.5 ± 13.36 mg/dL
